Counter-ions that a name gives are not always drawn. Calls of active or inactive are those of the source. No cut-off for these calls is given here.
How the values were obtained:
Rattus norvegicus [1] = assay: Antianxiety activity in Long-Evans rat assessed as reduction in motor activity at 20 mg/kg, po after 2 hrs relative to vehicle-treated control; assay type: functional; design: scale not given: the % may be the effect or the level left
Canis familiaris = assay: Antianxiety activity in po dosed dog assessed as ataxia administered as single dose measured up to 24 hrs; assay type: functional; conditions: Canis lupus familiaris, read-out: MED
Rattus norvegicus [2] = assay: Antihypertensive activity in spontaneously hypertensive rat model assessed as reduction in blood pressure at 3 mg/kg, po after 24 hrs; assay type: functional; design: scale not given: the % may be the effect or the level left
Rattus norvegicus [3] = assay: Antihypertensive activity in spontaneously hypertensive rat model assessed as reduction in blood pressure at 1 mg/kg, po after 3 hrs; assay type: functional; design: scale not given: the % may be the effect or the level left
[4] = Acute toxicity in po dosed mouse; assay type: organism-based; conditions: in vivo
Rattus norvegicus [5] = assay: Increase in methamphetamine-induced hyperactivity in rat at 5 mg/kg, po administered prior to methamphetamine challenge relative to vehicle-treated control; assay type: functional
Rattus norvegicus [6] = assay: Antihypertensive activity in spontaneously hypertensive rat model assessed as reduction in blood pressure at 1 mg/kg, po after 24 hrs; assay type: functional; design: scale not given: the % may be the effect or the level left
Mus musculus [7] = assay: Analgesic activity in mouse assessed as inhibition of acetic acid-induced writhing at 10 mg/kg, po administered 30 mins prior to acetic acid challenge measured after 5 mins for 20 mins; assay type: functional
Rattus norvegicus [8] = assay: Antianxiety activity in Long-Evans rat assessed as reduction in motor activity at 10 mg/kg, po after 2 hrs relative to vehicle-treated control; assay type: functional; design: scale not given: the % may be the effect or the level left
Mus musculus [9] = assay: Antianxiety activity in albino BALB/cJ mouse assessed as reduction in footshock-induced fighting behavior at 10 mg/kg, po after 30 to 90 mins; assay type: functional; design: scale not given: the % may be the effect or the level left
Rattus norvegicus [10] = assay: Antihypertensive activity in spontaneously hypertensive rat model assessed as reduction in blood pressure at 3 mg/kg, po after 3 hrs; assay type: functional; design: scale not given: the % may be the effect or the level left
Mus musculus [11] = assay: Antianxiety activity in albino BALB/cJ mouse assessed as reduction in footshock-induced fighting behavior at 5 mg/kg, po after 30 to 90 mins; assay type: functional; design: scale not given: the % may be the effect or the level left
Felis catus [12] = assay: Hypnotic activity in cat assessed as increase in non-REM sleep time at 0.5 mg/kg administered orally through diet measured for 12 hrs by EEG analysis; assay type: functional; conditions: route oral
Rhesus monkey = assay: Antianxiety activity in po dosed rhesus monkey assessed as antiagressive behavior measured every hour post dosing; assay type: functional; conditions: Macaca mulatta, read-out: MED
Felis catus [13] = assay: Hypnotic activity in cat assessed as increase in total sleep time at 0.5 mg/kg administered orally through diet measured for 12 hrs by EEG analysis; assay type: functional; conditions: route oral
Rattus norvegicus [14] = assay: Antianxiety activity in Long-Evans rat assessed as reduction in motor activity at 5 mg/kg, po after 2 hrs relative to vehicle-treated control; assay type: functional; design: scale not given: the % may be the effect or the level left
Rattus norvegicus [15] = assay: Analgesic activity in po dosed Sprague-Dawley rat after 15 to 90 mins by tail flick test; assay type: functional
Mus musculus [16] = assay: Anticonvulsant activity in po dosed mouse assessed as dose required to protect 80% of animal measured after 1 to 4 hrs by audiogenic seizure test; assay type: functional
Mus musculus [17] = assay: Analgesic activity in po dosed mouse assessed as inhibition of acetic acid-induced writhing administered 30 mins prior to acetic acid challenge measured after 5 mins for 20 mins; assay type: functional
Rattus norvegicus [18] = assay: Antidiarrheal activity in Charles River rat assessed as inhibition of castor oil-induced diarrhea by measuring protected animals at 0.2 mg/kg, po administered 1 hr prior to castor oil challenge measured after 1 hr relative to vehicle-treated control; assay type: functional
Rattus norvegicus [19] = assay: Antidiarrheal activity in Charles River rat assessed as inhibition of castor oil-induced diarrhea by measuring protected animals at 0.1 mg/kg, po administered 1 hr prior to castor oil challenge measured after 1 hr relative to vehicle-treated control; assay type: functional
Rattus norvegicus [20] = assay: Antipsychotic activity in rat assessed as reduction of methamphetamine-induced hyperactivity at 5 mg/kg, po administered prior to methamphetamine challenge relative to vehicle-treated control; assay type: functional; design: scale not given: the % may be the effect or the level left
Rattus norvegicus [21] = assay: Antihypertensive activity in spontaneously hypertensive rat model assessed as reduction in blood pressure at 0.3 mg/kg, po after 24 hrs; assay type: functional; design: scale not given: the % may be the effect or the level left
Rattus norvegicus [22] = assay: Antihypertensive activity in spontaneously hypertensive rat model assessed as reduction in blood pressure at 0.3 mg/kg, po after 3 hrs; assay type: functional; design: scale not given: the % may be the effect or the level left
Rattus norvegicus [23] = assay: Antipsychotic activity in rat assessed as reduction of methamphetamine-induced hyperactivity at 2.5 mg/kg, po administered prior to methamphetamine challenge relative to vehicle-treated control; assay type: functional; design: scale not given: the % may be the effect or the level left
Rattus norvegicus [24] = assay: Antipsychotic activity in rat assessed as reduction of methamphetamine-induced hyperactivity at 20 mg/kg, po administered prior to methamphetamine challenge relative to vehicle-treated control; assay type: functional; design: scale not given: the % may be the effect or the level left
Rattus norvegicus [25] = assay: Antipsychotic activity in rat assessed as reduction of methamphetamine-induced hyperactivity at 10 mg/kg, po administered prior to methamphetamine challenge relative to vehicle-treated control; assay type: functional; design: scale not given: the % may be the effect or the level left
Rattus norvegicus [26] = assay: Antihypertensive activity in spontaneously hypertensive rat model assessed as reduction in blood pressure at 30 mg/kg, po after 3 hrs; assay type: functional; design: scale not given: the % may be the effect or the level left
Rattus norvegicus [27] = assay: Antihypertensive activity in spontaneously hypertensive rat model assessed as reduction in blood pressure at 30 mg/kg, po after 24 hrs; assay type: functional; design: scale not given: the % may be the effect or the level left
Rattus norvegicus [28] = species on record: Rattus norvegicus; assay: animal or person; assay type: functional; conditions: Charles River, route oral
Description: Antidiarrheal activity in Charles River rat assessed as inhibition of castor oil-induced diarrhea by measuring protected animals at 0.5 mg/kg, po administered 1 hr prior to castor oil challenge measured after 1 hr relative to vehicle-treated control

Rattus norvegicus [29] = assay: Antisecretory activity in Sprague-Dawley rat assessed as decrease in volume at 50 mg/kg, po administered 30 mins prior to pylorus ligation measured after 4 hrs relative to control; assay type: functional; design: scale not given: the % may be the effect or the level left
Rattus norvegicus [30] = assay: Antiulcer activity in albino Sprague-Dawley rat stress ulcer model assessed as prevention of stress-induced gastric lesions by measuring ulcer index score at 40 mg/kg, po administered 30 mins prior to stress measured after 4 hrs; assay type: functional, Stomach
Rattus norvegicus [31] = assay: Antiulcer activity in albino Sprague-Dawley rat reserpine ulcer model assessed as prevention of reserpine-induced gastric lesions by measuring ulcer index scores at 50 mg/kg, po administered 30 mins prior to reserpine challenge measured after 6 hrs; assay type: functional, Stomach
Felis catus [32] = assay: Hypnotic activity in cat assessed as decrease in non-REM sleep time at 0.5 mg/kg administered orally through diet measured for 12 hrs by EEG analysis; assay type: functional; conditions: route oral
Rattus norvegicus [33] = assay: Antihypertensive activity in spontaneously hypertensive rat model assessed as reduction in blood pressure at 10 mg/kg, po after 3 hrs; assay type: functional; design: scale not given: the % may be the effect or the level left
Rattus norvegicus [34] = assay: Antisecretory activity in Sprague-Dawley rat assessed as decrease in pepsin output at 50 mg/kg, po administered 30 mins prior to pylorus ligation measured after 4 hrs relative to control; assay type: functional; design: scale not given: the % may be the effect or the level left
Rattus norvegicus [35] = assay: Antianxiety activity in Long-Evans rat assessed as reduction in motor activity at 1 mg/kg, po after 2 hrs relative to vehicle-treated control; assay type: functional; design: scale not given: the % may be the effect or the level left
Felis catus [36] = assay: Hypnotic activity in cat assessed as increase in non-REM sleep time at 0.25 mg/kg administered orally through diet measured for 12 hrs by EEG analysis; assay type: functional; conditions: route oral
Rattus norvegicus [37] = assay: Antianxiety activity in Long-Evans rat assessed as reduction in motor activity at 4 mg/kg, po after 2 hrs relative to vehicle-treated control; assay type: functional; design: scale not given: the % may be the effect or the level left
Rattus norvegicus [38] = assay: Antiulcer activity in albino Sprague-Dawley rat stress ulcer model assessed as prevention of stress-induced gastric lesions by measuring ulcer index score at 10 mg/kg, po administered 30 mins prior to stress measured after 4 hrs; assay type: functional, Stomach
Rattus norvegicus [39] = assay: Antiulcer activity in albino Sprague-Dawley rat shay ulcer model assessed as ulcer index scores at 20 mg/kg administered intraduodenally post pyloric ligation measured after 18.5 hrs relative to vehicle-treated control; assay type: functional
Rattus norvegicus [40] = assay: Antiulcer activity in albino Sprague-Dawley rat reserpine ulcer model assessed as prevention of reserpine-induced gastric lesions by measuring ulcer index scores at 10 mg/kg, po administered 30 mins prior to reserpine challenge measured after 6 hrs; assay type: functional; conditions: Stomach
Rattus norvegicus [41] = assay: Antisecretory activity in Sprague-Dawley rat assessed as decrease in acid output at 50 mg/kg, po administered 30 mins prior to pylorus ligation measured after 4 hrs relative to control; assay type: functional; design: scale not given: the % may be the effect or the level left
Felis catus [42] = assay: Hypnotic activity in cat assessed as increase in total sleep time at 0.25 mg/kg administered orally through diet measured for 12 hrs by EEG analysis; assay type: functional; conditions: route oral
Rattus norvegicus [43] = assay: Antiulcer activity in albino Sprague-Dawley rat shay ulcer model assessed as ulcer index scores at 50 mg/kg administered intraduodenally post pyloric ligation measured after 18.5 hrs relative to vehicle-treated control; assay type: functional; conditions: route intraduodenal
Rattus norvegicus [44] = assay: Antisecretory activity in Sprague-Dawley rat assessed as decrease in acidity at 50 mg/kg, po administered 30 mins prior to pylorus ligation measured after 4 hrs relative to control; assay type: functional; design: scale not given: the % may be the effect or the level left
Rattus norvegicus [45] = assay: Antihypertensive activity in spontaneously hypertensive rat model assessed as reduction in blood pressure at 10 mg/kg, po after 24 hrs; assay type: functional; design: scale not given: the % may be the effect or the level left
Rattus norvegicus [46] = assay: Antidiarrheal activity in Charles River rat assessed as inhibition of castor oil-induced diarrhea by measuring protected animals at 0.05 mg/kg, po administered 1 hr prior to castor oil challenge measured after 1 hr relative to vehicle-treated control; assay type: functional

SMILES | minimal effective dose (Canis familiaris) | Activity (Rattus norvegicus [2]) | LD50 [4] | Activity (Mus musculus [9]) | Activity (Rattus norvegicus [10]) | Activity (Mus musculus [11]) | Time (Felis catus [12]) | Time (Felis catus [13]) | Activity (Rattus norvegicus [14]) | ED50 (Rattus norvegicus [15]) | ED50 (Mus musculus [17]) | inhibition in vivo at 0.2 mg/kg (Rattus norvegicus [18]) | inhibition in vivo at 0.1 mg/kg (Rattus norvegicus [19]) | Activity (Rattus norvegicus [21]) | Activity (Rattus norvegicus [22]) | Activity (Rattus norvegicus [24]) | Activity (Rattus norvegicus [25]) | inhibition in vivo at 0.5 mg/kg (Rattus norvegicus [28]) | other results
CC1CCC2=C(C1)c1c(O)cc(C(C)C(C)CCCc3ccc(F)cc3)cc1OC2(C)C (configuration not stated) | 10 mg/kg | 5% | 500 mg/kg | 16% | 33% | – | – | – | – | – | – | – | – | – | – | – | – | – | Activity (Rattus norvegicus [1]): 62%; Activity (Rattus norvegicus [3]): 9%; Activity (Rattus norvegicus [5]): 23%; Activity (Rattus norvegicus [6]): 0%; inhibition in vivo at 10 mg/kg (Mus musculus [7]): 32%; Activity (Rattus norvegicus [8]): 36%
CCCCCC(C)C(C)c1cc(O)c2c(c1)OC(C)(C)C1=C2CC(C)CC1 (configuration not stated) | 1 mg/kg | 28% | ≥ 1000 mg/kg | 92% | 37% | 58% | 122 min | 62 min | 96% | 1.4 mg/kg | 3 mg/kg | 80% | 50% | 12% | 19% | – | – | – | minimal effective dose (Rhesus monkey): 10 mg/kg; Activity (Mus musculus [16]): 10 mg/kg; Activity (Rattus norvegicus [20]): 70%; Activity (Rattus norvegicus [23]): 48%
C#CCN1CCC2=C(C1)c1c(O)cc(C(C)CCCCc3ccc(F)cc3)cc1OC2(C)C (configuration not stated) | – | – | ≥ 1000 mg/kg | – | – | 0% | 7 min | 61 min | 33% | – | 48 mg/kg | – | – | – | – | 70% | 50% | 30% | Activity (Rattus norvegicus [26]): 0%; Activity (Rattus norvegicus [27]): 0%
C#CCN1CCC2=C(C1)c1c(O)cc(C(C)CCCc3ccc(F)cc3)cc1OC2(C)C (configuration not stated) | 1 mg/kg | – | ≥ 1000 mg/kg | 47% | – | – | – | 99 min | – | 3.7 mg/kg | 5.3 mg/kg | – | – | 15% | 22% | 34% | 8% | 53% | Activity (Rattus norvegicus [29]): 33.3%; UI (Rattus norvegicus [30]): 1.4; UI (Rattus norvegicus [31]): 1.5; Time (Felis catus [32]): -20 min; Activity (Rattus norvegicus [33]): 30%; Activity (Rattus norvegicus [34]): 22.2%; Activity (Rattus norvegicus [35]): 60%; Time (Felis catus [36]): 45 min; Activity (Rattus norvegicus [37]): 77%; UI (Rattus norvegicus [38]): 1.7; Activity (Rattus norvegicus [39]): Active; Activity (Rattus norvegicus [40]): inactive; Activity (Rattus norvegicus [41]): 42.9%; Time (Felis catus [42]): 45 min; UI (Rattus norvegicus [43]): 1.3; Activity (Rattus norvegicus [44]): 12.8%; Activity (Rattus norvegicus [45]): 15%
CCOC(=O)C1(c2ccccc2)CCN(CCC(C#N)(c2ccccc2)c2ccccc2)CC1 [DIPHENOXYLATE HYDROCHLORIDE] | – | – | – | – | – | – | – | – | – | – | – | 95% | 67% | – | – | – | – | – | inhibition in vivo at 0.05 mg/kg (Rattus norvegicus [46]): 46%

Reference: ChEMBL document CHEMBL3272295, “Drugs derived from cannabinoids. 5. delta6a,10a-Tetrahydrocannabinol and heterocyclic analogs containing aromatic side chains” (J Med Chem, 1976)
